Experimental findings from US20180201650A1 (BGI SHENZHEN, priority 2014, published 2018) are described below.

The subject of the experiment is HVA calcium channel. The class given is cell-based, rat.

“Also recorded” adds a separate entry of the source.

As to GICCVDDTCTTHSGCL [κ-CPTx-btl05], the “current after loading (pA)” value was −62.59 pA, the “current before loading (pA)” value is −391.32 pA and the “inhibition of HVA calcium channel currents compared with Nifedipine (in words)” value is on record as “inhibitory effect is higher than that of Nifedipine; also recorded: higher inhibition rate on HVA calcium channel currents than Nifedipine”. Further, the “inhibition rate (%)” value (10 μM) stood at 83.24%.
